Measurements published in ChEMBL document CHEMBL1201862, “PubChem BioAssay data set” (2004).
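Step 1: Grow cells in 96-well plates. Step 2: Expose to compound for 48 hours at 5 concentrations. Step 3: Interpolate endpoints linearly; if unreached, use highest concentration. GI50: concentration for 50% inhibition of growth.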 Active and inactive are the calls of the source. Cut-off read from the data, not from the text of the source: active = GI50 up to about 1.1 µM and inactive = higher.

Tests used:
Test in all cases: growth of human tumour cells (NCI), 48 h
786-0 = test system: 786-0
A498 = test system: A498
A549 = test system: A549
ACHN = test system: ACHN
BT-549 = test system: BT-549
CAKI-1 = test system: CAKI-1
CCRF-CEM = test system: CCRF-CEM
EKVX = test system: EKVX
HCC 2998 = test system: HCC 2998
HCT-116 = test system: HCT-116
HCT-15 = test system: HCT-15
HL-60 = test system: HL-60
HOP-62 = test system: HOP-62
HOP-92 = test system: HOP-92
HT-29 = test system: HT-29
Hs-578T = test system: Hs-578T
IGROV-1 = test system: IGROV-1
K562 = test system: K562
KM12 = test system: KM12
LOX IMVI = test system: LOX IMVI
M14 = test system: M14
MCF7 = test system: MCF7
MDA-MB-231 = test system: MDA-MB-231
MDA-MB-435 = test system: MDA-MB-435
MDA-N = test system: MDA-N
MOLT-4 = test system: MOLT-4
Malme-3M = test system: Malme-3M
NCI-H226 = test system: NCI-H226
NCI-H23 = test system: NCI-H23
NCI-H460 = test system: NCI-H460
NCI-H522 = test system: NCI-H522
NCI/ADR-RES = test system: NCI/ADR-RES
OVCAR-3 = test system: OVCAR-3
OVCAR-4 = test system: OVCAR-4
OVCAR-5 = test system: OVCAR-5
OVCAR-8 = test system: OVCAR-8
PC-3 = test system: PC-3
RPMI-8226 = test system: RPMI-8226
RXF 393 = test system: RXF 393
SF-268 = test system: SF-268
SF-295 = test system: SF-295
SF-539 = test system: SF-539
SK-MEL-28 = test system: SK-MEL-28
SK-MEL-2 = test system: SK-MEL-2
SK-MEL-5 = test system: SK-MEL-5
SK-OV-3 = test system: SK-OV-3
SN12C = test system: SN12C
SNB-19 = test system: SNB-19
SNB-75 = test system: SNB-75
SR = test system: SR
SW-620 = test system: SW-620
T47D = test system: T47D
TK-10 = test system: TK-10
U-251 = test system: U-251
UACC-257 = test system: UACC-257
UACC-62 = test system: UACC-62

SMILES: COC(=O)C(=O)C(C(=O)C(N)=O)c1nc2ccc(C(=O)c3ccccc3)cc2nc1O (stereo unspecified)
- GI50 (786-0): > 100 µM (inactive)
- GI50 (A498): > 100 µM (inactive)
- GI50 (A549): > 100 µM (inactive)
- GI50 (ACHN): 63 µM (inactive)
- GI50 (BT-549): > 100 µM (inactive)
- GI50 (CAKI-1): 56 µM (inactive)
- GI50 (CCRF-CEM): > 100 µM (inactive)
- GI50 (EKVX): > 100 µM (inactive)
- GI50 (HCC 2998): > 100 µM (inactive)
- GI50 (HCT-116): > 100 µM (inactive)
- GI50 (HCT-15): 55.7 µM
- GI50 (HL-60): 84.7 µM (inactive)
- GI50 (HOP-62): > 100 µM (inactive)
- GI50 (HOP-92): > 100 µM (inactive)
- GI50 (HT-29): > 100 µM (inactive)
- GI50 (Hs-578T): 80.5 µM (inactive)
- GI50 (IGROV-1): 83.2 µM (inactive)
- GI50 (K562): 34.2 µM (inactive)
- GI50 (KM12): 46.9 µM (inactive)
- GI50 (LOX IMVI): > 100 µM (inactive)
- GI50 (M14): > 100 µM (inactive)
- GI50 (MCF7): 63.8 µM (inactive)
- GI50 (MDA-MB-231): > 100 µM (inactive)
- GI50 (MDA-MB-435): 65 µM (inactive)
- GI50 (MDA-N): > 100 µM (inactive)
- GI50 (MOLT-4): 54.3 µM (inactive)
- GI50 (Malme-3M): > 100 µM (inactive)
- GI50 (NCI-H226): > 100 µM (inactive)
- GI50 (NCI-H23): > 10 µM (inactive)
- GI50 (NCI-H460): 74.5 µM (inactive)
- GI50 (NCI-H522): 40.7 µM (inactive)
- GI50 (NCI/ADR-RES): 40.4 µM (inactive)
- GI50 (OVCAR-3): > 100 µM (inactive)
- GI50 (OVCAR-4): 28.6 µM (inactive)
- GI50 (OVCAR-5): > 100 µM (inactive)
- GI50 (OVCAR-8): 53.8 µM (inactive)
- GI50 (PC-3): 75.2 µM (inactive)
- GI50 (RPMI-8226): 62.5 µM (inactive)
- GI50 (RXF 393): 69.7 µM (inactive)
- GI50 (SF-268): > 100 µM (inactive)
- GI50 (SF-295): 79.8 µM (inactive)
- GI50 (SF-539): 87.1 µM (inactive)
- GI50 (SK-MEL-28): > 100 µM (inactive)
- GI50 (SK-MEL-2): > 100 µM (inactive)
- GI50 (SK-MEL-5): 45.7 µM (inactive)
- GI50 (SK-OV-3): > 100 µM (inactive)
- GI50 (SN12C): > 100 µM (inactive)
- GI50 (SNB-19): > 10 µM (inactive)
- GI50 (SNB-75): 69 µM (inactive)
- GI50 (SR): 27.7 µM (inactive)
- GI50 (SW-620): > 100 µM (inactive)
- GI50 (T47D): 70.5 µM (inactive)
- GI50 (TK-10): > 100 µM (inactive)
- GI50 (U-251): > 100 µM (inactive)
- GI50 (UACC-257): > 100 µM (inactive)
- GI50 (UACC-62): > 100 µM (inactive)
